Measurements as given in PMC9027957, “Interspecies Comparisons of the Effects of Potential Antiviral 3-Amidinophenylalanine Derivatives on Cytochrome P450 1A2 Isoenzyme” (Veterinary Sciences, 2022).

Legend:
CYP1A2 [1] = molecular target: T1, CYP1A2 (Macaca fascicularis, UniProt O77809); conditions: 2 h, 50 µM
T1 sequence (O77809 1-516): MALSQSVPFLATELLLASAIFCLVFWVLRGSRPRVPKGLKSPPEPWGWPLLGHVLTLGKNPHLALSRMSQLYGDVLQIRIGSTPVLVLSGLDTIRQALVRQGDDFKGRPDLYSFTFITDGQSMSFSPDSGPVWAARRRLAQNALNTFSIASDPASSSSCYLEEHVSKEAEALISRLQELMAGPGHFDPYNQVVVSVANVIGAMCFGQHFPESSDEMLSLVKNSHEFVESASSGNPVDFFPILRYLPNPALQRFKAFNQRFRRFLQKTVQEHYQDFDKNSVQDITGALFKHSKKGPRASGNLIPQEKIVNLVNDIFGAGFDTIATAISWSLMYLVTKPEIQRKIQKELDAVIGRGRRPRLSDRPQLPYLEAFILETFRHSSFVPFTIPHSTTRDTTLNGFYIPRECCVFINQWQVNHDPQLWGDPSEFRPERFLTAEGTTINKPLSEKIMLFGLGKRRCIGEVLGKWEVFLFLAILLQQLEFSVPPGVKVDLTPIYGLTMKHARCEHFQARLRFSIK
Protocol: For the measurements of CYP1A2 activities, hepatocytes were grown on 24-well collagen-coated membrane inserts (Costar Transwell-PTFE membrane, 6.5 mm, pore size: 0.4 µm, Merck, Darmstadt, Germany). […] The determination of the CYP1A2 activities were performed using the P450-Glo CYP450 Assay (Promega, Madison, WI, USA) according to the manufacturer’s instructions.

CYP1A2 [2] = molecular target: T1, CYP1A2; assay: CYP1A2 fluorometric activity assay in cynomolgus monkey hepatic microsomes; assay type: in vitro ADME; parameters: cynomolgus monkey microsomal suspension (Primacyt, Schwerin, Germany, protein concentration: 5 mg/mL); tissue Primacyt, Schwerin, Germany; host or cells: liver (hepatic microsomes)
Protocol: The Biovision CYP assay (BioVision, Inc., Kampenhout, Belgium) utilizes a non-fluorescent CYP1A2 substrate capable of transforming into a highly fluorescent metabolite, which can be detected in the visible range. α-naphthoflavone was used as a CYP1A2 reference inhibitor at 6 µM during the experiments. Rat (Sprague–Dawley) and beagle (Gibco, Biocenter, Szeged, Hungary, protein concentration: 20 mg/mL) hepatic microsomal preparations were prepared separately by mixing 25 µL of the obtained rat or beagle microsomal suspension with 2425 µL assay buffer and with 50 µL NADPH generating system (100×). In the case of the cynomolgus monkey microsomal suspension (Primacyt, Schwerin, Germany, protein concentration: 5 mg/mL), the following volumes were applied: in addition to 100 µL of monkey microsomal suspension, the amount of assay buffer and the NADPH generating system were adjusted in order to ensure the original ratios of these components to reach a final volume of 2500 µL. Rat, beagle, and cynomolgus monkey microsomal suspension aliquots (50 µL) were treated with the protease inhibitor 20 µL, 0–1000 µM), the reference compound α-naphthoflavone (20 µL, 30 µM), or the assay buffer without test compounds (20 µL, background control) for 15 min at 37 °C. After incubation, 30 µL of the appropriate CYP1A2 substrate/NADP+ mixture was added to each well, yielding a final reaction volume of 100 µL/well. The protein contents of the obtained microsomes were analysed using bicinchoninic acid protein assay kit (Pierce BCA kit, Thermo Fisher Scientific, Waltham, MA, USA). […] The fluorescence intensities were measured with a fluorometer (Victor X2 2030, Perkin Elmer, Waltham, MA, USA), using λEx/Em = 406/468 nm.

[3] = 60 min microsomal stability assay (UPLC-MS/MS), cynomolgus monkey liver microsomes; assay type: in vitro ADME; conditions: 50 µM
Protocol: Rat, beagle (Gibco, Biocenter, Szeged, Hungary), and cynomolgus monkey (Primacyt, Schwerin, Germany) liver microsomes were exposed to inhibitors MI-432, MI-463, MI-482, or MI-1900 at 50 µM for 60 min. The final microsomal protein concentration in the suspension was 0.6 mg/mL in each case. The reaction buffer (100 mM phosphate buffer pH 7.4) also contained 1 mM nicotinamide adenine dinucleotide phosphate (NADPH), 5 mM MgCl2, 10 mM glucose-6-phosphate (G6P), and 2 IU/mL glucose-6-phosphate dehydrogenase (G6PD). The reaction was terminated by the addition of ice-cold acetonitrile (ACN) with the ratio of sample ACN volume = 1:2. The precipitated protein was removed by centrifugation at 10,000× g for 10 min, and the supernatants were used for subsequent analyses.
The determination of all analytes was carried out using an UPLC/MS/MS system, which consisted of an HPLC apparatus (SCIEX ExionLC^TM UPLC, Framigham, MA, USA) and a SCIEX Qtrap 4500 triple-quadrupole mass spectrometer (Framigham, MA, USA) equipped with a SCIEX Turbo V electrospray ionization source. The HPLC columns used were LiChrospher RP Select B (125 × 4.0 mm, 5.0 μm, C8 stationary phase). Next, 0.1% trifluoroacetic acid in ultra-purified water (A) and acetonitrile (B) were used as mobile phases for chromatographic separations applying a gradient elution. The HPLC gradient program was the following: between 0 and 10 min, a ratio of 70% A and 30% B; from 10 to 20 min, linearly increasing to a ratio of 50% A and 50% B; from 20 to 21 min, maintained at a ratio of 50% A and 50% B; from 21 to 22 min, linearly decreasing back to a ratio of 70% A and 30% B; and between 22 min and 30 min, maintained at a ratio of 70% A and 30% B. The run time was 30 min, the column temperature was adjusted to 35 °C, and the flow rate was 1 mL/min.

SARS-CoV-2 = tested on: SARS-CoV-2; parameters: method as in PMID 32703818; conditions: infected human airway epithelial Calu 3 cells, dose-dependent; cited from earlier work

SMILES | CYP1A2 activity in cynomolgus monkey hepatocytes (CYP1A2 [1]) | IC50 (CYP1A2 [2]) [nM] | CYP1A2 in the cynomolgus monkey microsomal model (CYP1A2 [2]; microsomes) | depletion percentage of the parent compound ([3]; cynomolgus monkey, pH 7.4) [%] | SARS-CoV-2 titers (SARS-CoV-2) | CYP1A2 in the cynomolgus monkey microsomal model (CYP1A2 [2]; inhibitors at 50 µM) | depletion percentage of the parent compound ([3]; monkey microsomes, 0.6 mg/mL protein, mean ± SD (n = 3)) [%]
N=C(N)c1cccc(C[C@H](NS(=O)(=O)c2cccc(-c3ccc(Cl)cc3Cl)c2)C(=O)N2CCC(CCN)CC2)c1 [MI-432] | significantly decrease the activity of CYP1A2 | 1300 ± 140 | inhibited | 19.6 ± 5.8 | reduced |  | 
COc1ccc(-c2cccc(S(=O)(=O)N[C@@H](Cc3cccc(C(=N)N)c3)C(=O)N3CCN(C(=O)NC4CCCCC4)CC3)c2)c(OC)c1 [MI-1900] | significantly decrease the activity of CYP1A2 | 1100 ± 800 |  |  | reduced | inhibited | 26.7 ± 10.8
